Results: publication PMC6916368, “Cell‐Based Optimization of Covalent Reversible Ketoamide Inhibitors Bridging the Unprimed to the Primed Site of the Proteasome β5 Subunit” (Chemmedchem, 2019)

Tests used:
Jurkat cells = assay: Cell viability endpoint assay (Celltiter Blue, 72 h); format: cell-based; details: Homo sapiens, mean±SD from two independent experiments
Procedure, shortened: (§1)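 Proteasome inhibitors were tested at 1 nM to 10 μM final on 50.000 cells/well in RPMI-1640 with 0.1 % FBS, plated overnight beforehand, at 37 °C and 5 % CO2. Reagent was incubated 120 minutes before the fluorescence read. IC50 came from a sigmoidal fit of technical triplicates, as the mean of two independent experiments.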

MV4‐11 cells = assay: as above; format: cell-based; details: Homo sapiens, MV4-11, mean±SD from two independent experiments
Procedure, shortened: as §1

THP‐1 cells [1] = assay: as above; format: cell-based; details: Homo sapiens, mean±SD from two independent experiments
Procedure, shortened: as §1

[2] = molecular target: T1, β5c subunit of isolated human 20S proteasome (Homo sapiens, UniProt P28074); assay: Proteasome inhibition assay (20 S Proteasome Assay Kit, Suc‐LLVY‐AMC); format: biochemical; details: for inhibition at 1 µM: c = 1 µM, n=1, read-out: Inhibition cCP β5; for inhibition at 0.1 µM: c=100 nM, read-out: Rel. Inhibition β5c; for IC50: purified proteasome; for Fold‐IC50 β5i/β5c: selectivity β5c over β5i
T1 construct: purchased Enzo Life Sciences
Procedure, shortened: (§2)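 Isolated human 20S proteasome (200 ng/well) preincubated 30 min with inhibitor, then 100 μM final Suc-LLVY-AMC (β5c, β5i) or Z-LLE-AMC (β1c) added for 60 min; fluorescence read. Residual activity at 100 nM final (n=3; β5c, β5i) or 1 μM (n=1, incl. β1c). IC50s: technical duplicates, mean of three experiments.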

[3] = molecular target: T2, β5i subunit of isolated human 20S proteasome (Homo sapiens, UniProt P28062); assay: as above; format: biochemical; details: for inhibition at 1 µM: c = 1 µM, n=1, read-out: Inhibition iCP β5; for inhibition at 0.1 µM: c=100 nM, read-out: Rel. Inhibition β5i; for IC50: purified proteasome
T2 construct: purchased Enzo Life Sciences
Procedure, shortened: as §2

[4] = molecular target: T3, β2c subunit of isolated human 20S proteasome (Homo sapiens, UniProt Q99436); assay: Proteasome inhibition assay (20 S Proteasome Assay Kit, Bz‐VGR‐AMC); format: biochemical; details: c = 1 µM, n=1; read-out: Inhibition cCP β2
T3 construct: purchased Enzo Life Sciences
Procedure, shortened: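 Isolated 20S proteasome (200 ng/well) was preincubated 30 min with inhibitor, then Bz-VGR-AMC (100 μM final) was added for 60 min and fluorescence read. Single-point residual activity was taken at 100 nM or 1 μM; IC50 was fitted from duplicates, mean of three independent experiments.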

[5] = molecular target: T4, β1c subunit of isolated human 20S proteasome (Homo sapiens, UniProt P28072); assay: Proteasome inhibition assay (20 S Proteasome Assay Kit, Z‐LLE‐AMC); format: biochemical; details: c = 1 µM, n=1; read-out: Inhibition cCP β1
T4 construct: purchased Enzo Life Sciences
Procedure, shortened: as §2

Danio rerio embryos = assay: Danio rerio embryo toxicity assay (not dechorionated); format: in vivo
Method: Danio rerio embryo toxicity assay. Fish keeping protocols are approved by the Darmstadt administrative authority and documented. All fish were treated humanely. […] Embryos were decollated into separate wells containing a total volume of 200 μL and the inhibitor at the given concentration.

in vitro = format: cell-based; details: human
Method: (§3) Remarkably, in THP‐1 cells the initial cytotoxicity is increasing for 3 compared to 27 until 14 h treatment (9‐fold) but is approaching to the end of the assay.
(§4) Time‐dependent determination of cell viability. For the determination of time‐dependent cytotoxic activity 5.000 cells per well were plated in a white 384 well‐plate in RPMI‐1640 medium supplemented with 0.1 % FBS. Real‐Time Glo MT cell viability assay (Promega) and inhibitor were added to the final concentration and luminescence was determined using a Tecan M1000 microplate reader at the time points indicated (SI chapter 2b, Figure S9–S17, Table S2).

THP‐1 cells [6] = format: cell-based
Method: as §3, §4

[7] = tested on: proteasome in MV4‐11 cells; assay: In‐cell determination of proteasome IC50 (conversion of substrate 30); format: cell-based; details: MV4-11, without pre‐incubation
Method: In‐cell determination of proteasome IC 50. […] Substrate was added to give a final concentration of 30 μM and substrate conversion was detected by fluorescence measurement over 100 min (assay validation) or 60 min (inhibition assays) using a Tecan M1000 microplate reader. Rate of fluorescence change over time was calculated, rates for negative (no‐cell) control was subtracted and normalized to positive control (no inhibitor).

Compound | IC50 (Jurkat cells) [nM] | IC50 (MV4‐11 cells) [nM] | IC50 (THP‐1 cells [1]) [nM] | inhibition at 1 µM [2] [%] | inhibition at 0.1 µM [2] [%] | inhibition at 1 µM [3] [%] | inhibition at 0.1 µM [3] [%] | inhibition at 1 µM [4] [%] | inhibition at 1 µM [5] [%] | Survival of embryos (not dechorionated) (Danio rerio embryos; 1 µM, 24 h) [%] | Survival of embryos (not dechorionated) (Danio rerio embryos; 1 µM, 48 h) [%] | Survival of embryos (not dechorionated) (Danio rerio embryos; 1 µM, 72 h) [%] | Survival of embryos (not dechorionated) (Danio rerio embryos; 1 µM, 96 h) [%] | Survival of embryos (not dechorionated) (Danio rerio embryos; 5 µM, 24 h) [%] | Survival of embryos (not dechorionated) (Danio rerio embryos; 5 µM, 48 h) [%] | Survival of embryos (not dechorionated) (Danio rerio embryos; 5 µM, 72 h) [%] | Survival of embryos (not dechorionated) (Danio rerio embryos; 5 µM, 96 h) [%] | Survival of embryos (not dechorionated) (Danio rerio embryos; 10 µM, 24 h) [%] | Survival of embryos (not dechorionated) (Danio rerio embryos; 10 µM, 48 h) [%] | Survival of embryos (not dechorionated) (Danio rerio embryos; 10 µM, 72 h) [%] | also measured
CC(C)C[C@H](NC(=O)OCc1ccccc1)C(=O)N[C@@H](CC(C)C)C(=O)N[C@@H](CC(C)C)C(=O)C(=O)Nc1cccc(Oc2ccccc2)c1 [Compound 9, Benzyl‐((S)‐4‐methyl‐1‐(((S)‐4‐methyl‐1‐(((S)‐5‐methyl‐1,2‐dioxo‐1‐((3‐phenoxyphenyl)‐amino)hexan‐3‐yl)amino)‐1‐oxopentan‐2‐yl)amino)‐1‐oxopentan‐2‐yl)carbamate] | 24 ± 4 | 18 ± 3 | 30 ± 10 | 81 | 56 | 31 | 23 | 9 | 0 | 100 | 100 | 100 | 100 | 100 | 100 | 100 | 100 | 100 | 100 | 100 | IC50 [2]: 66 nM; Fold‐IC50 β5i/β5c [2]: 2.6; IC50 [3]: 170 nM; Survival of embryos (not dechorionated) (Danio rerio embryos; 10 µM, 96 h): 100%; Survival of embryos (not dechorionated) (Danio rerio embryos; 25 µM, 24 h): 100%; Survival of embryos (not dechorionated) (Danio rerio embryos; 25 µM, 48 h): 100%; Survival of embryos (not dechorionated) (Danio rerio embryos; 25 µM, 72 h): 100%; Survival of embryos (not dechorionated) (Danio rerio embryos; 25 µM, 96 h): 100%
CC(C)C[C@H](NC(=O)[C@H](CCc1ccccc1)NC(=O)CN1CCOCC1)C(=O)N[C@@H](Cc1ccccc1)C(=O)N[C@@H](CC(C)C)C(=O)[C@@]1(C)CO1 [Carfilzomib 3, Carfilzomib] | 14 ± 3 | 3.6 ± 1.8 | 135 ± 39 | 96 | 86 | 91 | 43 | 37 | -18 | 100 | 100 | 100 | 100 | 100 | 100 | 100 | 100 | 100 | 100 | 100 | IC50 at 13 h (in vitro): 50 to 400 nM; cytotoxicity of 3 compared to 27 (THP‐1 cells [6]): 9 fold; Survival of embryos (not dechorionated) (Danio rerio embryos; 10 µM, 96 h): 100%; Survival of embryos (not dechorionated) (Danio rerio embryos; 25 µM, 24 h): 100%; Survival of embryos (not dechorionated) (Danio rerio embryos; 25 µM, 48 h): 100%; Survival of embryos (not dechorionated) (Danio rerio embryos; 25 µM, 72 h): 100%; Survival of embryos (not dechorionated) (Danio rerio embryos; 25 µM, 96 h): 100%
Cc1ccc(NC(=O)C(=O)C(CC(C)C)NC(=O)C(CC(C)C)NC(=O)C(CC(C)C)NC(=O)OCc2ccccc2)c(C)c1 (stereo not drawn) [Compound 7, BSc4999] | 30 ± 0.3 | 19 ± 3 | 24 ± 0.1 | 92 | 64 | 74 | 33 | 9 | -26 | 100 | 100 | 100 | 100 | 100 | 100 | 100 | 100 | 100 | 100 | 100 | IC50 [2]: 48 nM; Fold‐IC50 β5i/β5c [2]: 4.3; IC50 [3]: 204 nM; fold more potent than 9 (in-cell conversion of 30) [7]: 4 fold; Survival of embryos (not dechorionated) (Danio rerio embryos; 10 µM, 96 h): 100%; Survival of embryos (not dechorionated) (Danio rerio embryos; 25 µM, 24 h): 80%; Survival of embryos (not dechorionated) (Danio rerio embryos; 25 µM, 48 h): 80%; Survival of embryos (not dechorionated) (Danio rerio embryos; 25 µM, 72 h): 80%; Survival of embryos (not dechorionated) (Danio rerio embryos; 25 µM, 96 h): 80%
